Results on three compounds are retold here after paper PMC6399351, “Cationic Intrinsically Disordered Antimicrobial Peptides (CIDAMPs) Represent a New Paradigm of Innate Defense with a Potential for Novel Anti-Infectives” (Scientific Reports, 2019).

SMILES strings stand for the structures. In brackets after ≈: the same amount, converted by molar mass. Where two headings read alike, the source gives them in different places. Peptide text beside a SMILES is read from it. * marks the point of attachment. Palmitoyl = CCCCCCCCCCCCCCCC(=O)*

One assay concerns P. aeruginosa ATCC 10145. The following applies: CFU assay, 10 mM NaP.
Assay [1] has as its system Staphylococcus aureus ATCC 43300. Particulars: MRSA; CLSI, Mueller–Hinton broth, 5 × 10^5 CFU/mL, 18 h 37 °C, by CO-ADD.
Assay [2] has as its system Klebsiella pneumoniae ATCC 13883. Particulars: CFU assay, 10 mM NaP.
The test system of another assay is E. coli ATCC 11775. The assay is described as follows: CFU assay of antimicrobial activity. Type of assay: cell-based, Escherichia coli. The following applies: 10 mM NaP. As to the method: (§1) All purified peptides and recombinant proteins were applied using a colony forming unit (CFU) assay in different media. Bacteria were grown to early log-phase in BHI, washed either with 10 mM Na-P, pH 7.4/1% TSB or pH 5.5/1% TSB, or pH 5.5 without TSB or BHI, and adjusted to a concentration of 10^4–10^5 colony forming units (CFU)/ml. For cell number control, 100 µl aliquots were diluted 1:10, 1:100 and 1:1000 and plated in duplicates on BHI agar plates. To 100 µl aliquots of the bacteria, suspended in the respective medium (10 mM Na-P buffer pH 7,0–7,4/ 1% (w/v) TSB; 10 mM Na-P buffer pH 5,5/ 1% (w/v) TSB; 10 mM Na-P buffer pH 7,0–7,4/ 1% (w/v) TSB pH 7,0–7,4/ 0,25% (w/v) glucose; 10 mM Na-P buffer pH 5,5/ 0,25% (w/v) glucose, respectively), 10 µl of a solution of the peptide or protein (two-fold dilutions, from 300 µg/ml or 150 µg/ml down to 19 ng/ml), dissolved in 0.01% (v/v) acetic acid, were added.
(§2) Then bacteria were incubated for 2 h at ambient temperature, if not otherwise stated. 10 µl of 0.01% (v/v) acetic acid, added to 100 µl aliquots of the bacteria in the respective medium, served as negative control. From each test, 1:10 and 1:100 dilutions were generated and plated as duplicates of 100 µl aliquots on BHI agar plates. After 16 h incubation at 37 °C, CFU were counted using a colony counter (Bio Kobe, Japan) and expressed as mean of the duplicate estimation to achieve a complete dose-response curve. All experiments were performed at serial dilutions in a concentration range of 100 µg/mL −25 ng/mL for recombinant HRNR fragments and 300 or 150 µg/mL–19 ng/mL for synthetic peptides.

The subject of assay [3] is Candida albicans ATCC 90028. The assay is described as follows: CO-ADD MIC, antifungal assay (CLSI). It is filed as cell-based. The following applies: Yeast Nitrogen Base broth, 24 h 35 °C, by CO-ADD. As to the method: (§3) Fungi strains were cultured for 3 days on Yeast Extract-Peptone Dextrose (YPD) agar at 30 °C. A yeast suspension of 1 × 10^6 to 5 × 10^6 cells/mL (as determined by OD530) was prepared from five colonies. These stock suspensions were diluted with Yeast Nitrogen Base (YNB) broth to a final concentration of 2.5 × 10^3 CFU/mL. […] Plates were covered and incubated at 35 °C for 24 h without shaking.

In assay [4] the test system is Cryptococcus neoformans ATCC 208821. Briefly: CO-ADD MIC, antifungal assay (CLSI). Type of assay: cell-based. The following applies: Yeast Nitrogen Base broth, 24 h 35 °C, by CO-ADD. Here is the method: as §3
For assay [5], the system named is Klebsiella pneumonia ATCC 700603. Particulars: MDR strain; CLSI, Mueller–Hinton broth, 5 × 10^5 CFU/mL, 18 h 37 °C, by CO-ADD.
Another assay relates to S. aureus ATCC 6538. Particulars: CFU assay, 10 mM NaP.
Assay [6] concerns Streptococcus pyogenes ATCC 12344. The assay is described as follows: CFU assay of antimicrobial activity. It is filed as cell-based. Particulars: 10 mM NaP. As to the method:
as §1, with “[…];” for “10 mM Na-P buffer pH 5,5/ 1% (w/v) TSB;”
as §2

The test system of assay [7] is Streptococcus pneumoniae ATCC 33400. Briefly: CFU assay of antimicrobial activity. Type of assay: cell-based. Particulars: 10 mM NaP. Here is the method: as §1, with “[…];” for “10 mM Na-P buffer pH 5,5/ 1% (w/v) TSB;”
as §2

Another assay concerns E. coli ATCC 25922. The assay is described as follows: CO-ADD MIC, broth microdilution (CLSI). It is filed as cell-based, Escherichia coli. The following applies: Mueller–Hinton broth, 5 × 10^5 CFU/mL, 18 h 37 °C, by CO-ADD. The source says: (§4) They were defined as the lowest peptide
(§5) Further details of the screening

Assay [8] deals with Pseudomonas aeruginosa ATCC 27853. Briefly: CO-ADD MIC, broth microdilution (CLSI). It is filed as cell-based. The following applies: Mueller–Hinton broth, 5 × 10^5 CFU/mL, 18 h 37 °C, by CO-ADD.
Source text: as §4, §5
(Dilution methods test growth across graded concentrations, often in twofold steps.)

The subject of assay [9] is Acinetobacter baumannii ATCC 19606. The assay is described as follows: CO-ADD MIC, broth microdilution (CLSI). Particulars: Mueller–Hinton broth, 5 × 10^5 CFU/mL, 18 h 37 °C, by CO-ADD. It is filed as cell-based.
Source text: as §4, §5

Assay [10] relates to Salmonella typhimurium ATCC 13311. Briefly: CFU assay of antimicrobial activity. Type of assay: cell-based. The following applies: 10 mM NaP. As to the method:
as §1, §2

The test system of assay [11] is Staphylococcus epidermidis ATCC 14990. Briefly: CFU assay of antimicrobial activity. Type of assay: cell-based. Particulars: 10 mM NaP. As to the method:
as §1, §2

Assay [12] relates to Burkholderia cepacia ATCC 25416. The following applies: CFU assay, 10 mM NaP.
Assay [13] relates to Prevotella oralis ATCC 33321. Briefly: CFU assay of antimicrobial activity. It is filed as cell-based. The following applies: 10 mM NaP. As to the method:
as §1, with “[…],” for “10 mM Na-P buffer pH 5,5/ 0,25% (w/v) glucose,”
as §2

Assay [14] relates to Propionibacterium acnes ATCC 6919. The assay is described as follows: CFU assay of antimicrobial activity. It is filed as cell-based. The following applies: 10 mM NaP. Here is the method: as §1, §2
Assay [15] concerns Clostridium perfringens ATCC 13124. Particulars: CFU assay, 10 mM NaP.

Consider `CCCCCCCCCCCCCCCC(=O)N[C@@H](CO)C(=O)N[C@@H](Cc1c[nH]cn1)C(=O)N[C@@H](Cc1c[nH]cn1)C(=O)N[C@@H](CCCNC(=N)N)C(=O)N[C@@H](CS)C(=O)N[C@@H](CS)C(=O)N[C@@H](CCCNC(=N)N)C(=O)N[C@@H](CO)C(=O)N[C@@H](Cc1c[nH]cn1)C(=O)N[C@@H](CCCNC(=N)N)C(=O)N[C@@H](CS)C(=O)N[C@@H](CCCNC(=N)N)C(=O)N[C@@H](CCCNC(=N)N)C(=O)O` [Pal-LCE-3B56–68] (Palmitoyl-SHHRCCRSHRCRR-OH), for which the LD90 is 0.075 µg/mL in the assay on P. aeruginosa ATCC 10145 (pH 5.5, 0.25% glucose); 0.15 µg/mL in [2] (pH 5.5, 0.25% glucose); 2.35 µg/mL in assay [2] (pH 7.3, 0.25% glucose); 0.3 µg/mL in the assay on E. coli ATCC 11775 (pH 5.5, 0.25% glucose); 0.59 µg/mL in the assay with E. coli ATCC 11775 (pH 7.3, 0.25% glucose); less than 0.019 µg/mL in the assay with S. aureus ATCC 6538 (pH 5.5, 0.25% glucose). In addition, the LD90 came to 0.15 µg/mL in assay [6] (pH 6.0, 0.25% glucose); 0.15 µg/mL in [6] (pH 7.3, 0.25% glucose); 0.59 µg/mL in assay [7] (pH 7.3, 0.25% glucose); 0.038 µg/mL in [10] (pH 5.5, 0.25% glucose); 1.18 µg/mL in assay [10] (pH 7.3, 0.25% glucose); 0.3 µg/mL in assay [11] (pH 5.5, 0.25% glucose). For the same compound, the LD90 in [12] (pH 5.5, 0.25% glucose) is more than 300 µg/mL; in assay [12] (pH 7.3, 0.25% glucose) it was 4.7 µg/mL. For the same compound, the “Minimal inhibitory concentration (MIC)” value was 16 µg/mL (≈ 8.28 µM) in [1]; 1 µg/mL (≈ 0.517 µM) in assay [3]; 0.25 µg/mL (≈ 0.129 µM) in assay [4]; more than 32 µg/mL in [5]; more than 32 µg/mL in the assay on E. coli ATCC 25922; more than 32 µg/mL in assay [8]. The “Minimal inhibitory concentration (MIC)” value in assay [9] was more than 32 µg/mL.

In the case of `CCCCCCCCCCCCCCCC(=O)NCC(=O)N[C@@H](CCCNC(=N)N)C(=O)N[C@@H](CCCNC(=N)N)C(=O)NCC(=O)N[C@@H](CO)C(=O)NCC(=O)N[C@@H](CC(C)C)C(=O)NCC(=O)N[C@@H](CCCNC(=N)N)C(=O)N[C@@H](CO)C(=O)N[C@@H](CO)C(=O)N[C@@H](CO)C(=O)N[C@@H](CCCNC(=N)N)C(=O)NCC(=O)N[C@@H](CCC(N)=O)C(=O)N[C@@H](CCCNC(=N)N)C(=O)NCC(=O)N[C@@H](CO)C(=O)NCC(=O)N[C@@H](CO)C(=O)NCC(=O)N[C@@H](CCCNC(=N)N)C(=O)O` [Pal-HR 1-18-HR] (Palmitoyl-GRRGSGLGRSSSRGQRGSGSGR-OH), the LD90 in the assay with P. aeruginosa ATCC 10145 (pH 7.3, 1% TSB) is 1.18 µg/mL; in the assay on S. aureus ATCC 6538 (pH 5.5, 0.25% glucose), 0.3 µg/mL; in the assay on S. aureus ATCC 6538 (pH 7.3, 1% TSB), 1.18 µg/mL; in assay [6] (pH 7.3, 0.25% glucose), 0.15 µg/mL; in [7] (pH 7.3, 0.25% glucose), 9.38 µg/mL; in [13] (pH 7.3, 1% TSB), 37.5 µg/mL. Also, the LD90 in assay [14] (pH 7.3, 1% TSB) amounted to 1.18 µg/mL; in [12] (pH 7.3, 0.25% glucose) it was 75 µg/mL; in assay [12] (pH 7.3, 1% TSB), 75 µg/mL; in assay [15] (pH 7.3, 0.25% glucose) it was 4.7 µg/mL. The “Minimal inhibitory concentration (MIC)” value in assay [1] is 8 µg/mL (≈ 3.31 µM); in assay [3], more than 32 µg/mL; in assay [4] it was 1 µg/mL (≈ 0.414 µM); in assay [5], more than 32 µg/mL; in the assay on E. coli ATCC 25922, 4 µg/mL (≈ 1.66 µM); in assay [8], 16 µg/mL (≈ 6.63 µM). Moreover, the “Minimal inhibitory concentration (MIC)” value in assay [9] is listed as 1 µg/mL (≈ 0.414 µM).

As for `CCCCCCCCCCCCCCCC(=O)NCC(=O)N[C@@H](CCCNC(=N)N)C(=O)N[C@@H](Cc1c[nH]cn1)C(=O)NCC(=O)N[C@@H](CO)C(=O)NCC(=O)N[C@@H](CC(C)C)C(=O)NCC(=O)N[C@@H](Cc1c[nH]cn1)C(=O)N[C@@H](CO)C(=O)N[C@@H](CO)C(=O)N[C@@H](CO)C(=O)N[C@@H](Cc1c[nH]cn1)C(=O)NCC(=O)N[C@@H](CCC(N)=O)C(=O)N[C@@H](Cc1c[nH]cn1)C(=O)NCC(=O)N[C@@H](CO)C(=O)NCC(=O)N[C@@H](CO)C(=O)NCC(=O)N[C@@H](CCCNC(=N)N)C(=O)O` [Pal-HR 1-18] (Palmitoyl-GRHGSGLGHSSSHGQHGSGSGR-OH), the “Minimal inhibitory concentration (MIC)” value (in [1]; in assay [3]; in assay [4]; in [5]; in the assay with E. coli ATCC 25922; in assay [8]) was more than 32 µg/mL in each case. Also, the “Minimal inhibitory concentration (MIC)” value in [9] was determined as 32 µg/mL (≈ 13.7 µM). In addition, the LD90 was 0.3 µg/mL in [2] (pH 5.5, 0.25% glucose); 1.18 µg/mL with S. aureus ATCC 6538 (pH 5.5, 0.25% glucose); more than 300 µg/mL in the assay on S. aureus ATCC 6538 (pH 7.3, 1% TSB); 0.15 µg/mL in assay [6] (pH 7.3, 0.25% glucose); 9.38 µg/mL in assay [6] (pH 7.3, 1% TSB); 2.35 µg/mL in assay [7] (pH 7.3, 0.25% glucose). Moreover, the LD90 is 9.38 µg/mL in assay [7] (pH 7.3, 1% TSB); 37.5 µg/mL in [13] (pH 6.5, 0.25% glucose); 18.75 µg/mL in assay [13] (pH 7.3, 1% TSB); 0.3 µg/mL in assay [14] (pH 5.5, 0.25% glucose); 0.59 µg/mL in assay [14] (pH 7.3, 0.25% glucose); 1.18 µg/mL in assay [14] (pH 7.3, 1% TSB). Besides, the LD90 in [11] (pH 7.3, 1% TSB) was more than 300 µg/mL; in [12] (pH 7.3, 0.25% glucose), 75 µg/mL; in assay [15] (pH 5.5, 0.25% glucose), 37.5 µg/mL; in assay [15] (pH 7.3, 0.25% glucose), 4.7 µg/mL; in [15] (pH 7.3, 1% TSB), 18.75 µg/mL.
